Reference: patent US10934274B2, “Quinoline derivatives as TAM RTK inhibitors” (Qurient Co., Ltd., priority 2015, dated 2021)

Legend:
TYRO3 = target: T1, TYRO3 (Homo sapiens, UniProt Q06418); test: LanthaScreen Eu kinase binding assay, TYRO3; conditions: Tracer 236
T1 construct: purchased Life Technologies
T1 sequence (Q06418 41-890): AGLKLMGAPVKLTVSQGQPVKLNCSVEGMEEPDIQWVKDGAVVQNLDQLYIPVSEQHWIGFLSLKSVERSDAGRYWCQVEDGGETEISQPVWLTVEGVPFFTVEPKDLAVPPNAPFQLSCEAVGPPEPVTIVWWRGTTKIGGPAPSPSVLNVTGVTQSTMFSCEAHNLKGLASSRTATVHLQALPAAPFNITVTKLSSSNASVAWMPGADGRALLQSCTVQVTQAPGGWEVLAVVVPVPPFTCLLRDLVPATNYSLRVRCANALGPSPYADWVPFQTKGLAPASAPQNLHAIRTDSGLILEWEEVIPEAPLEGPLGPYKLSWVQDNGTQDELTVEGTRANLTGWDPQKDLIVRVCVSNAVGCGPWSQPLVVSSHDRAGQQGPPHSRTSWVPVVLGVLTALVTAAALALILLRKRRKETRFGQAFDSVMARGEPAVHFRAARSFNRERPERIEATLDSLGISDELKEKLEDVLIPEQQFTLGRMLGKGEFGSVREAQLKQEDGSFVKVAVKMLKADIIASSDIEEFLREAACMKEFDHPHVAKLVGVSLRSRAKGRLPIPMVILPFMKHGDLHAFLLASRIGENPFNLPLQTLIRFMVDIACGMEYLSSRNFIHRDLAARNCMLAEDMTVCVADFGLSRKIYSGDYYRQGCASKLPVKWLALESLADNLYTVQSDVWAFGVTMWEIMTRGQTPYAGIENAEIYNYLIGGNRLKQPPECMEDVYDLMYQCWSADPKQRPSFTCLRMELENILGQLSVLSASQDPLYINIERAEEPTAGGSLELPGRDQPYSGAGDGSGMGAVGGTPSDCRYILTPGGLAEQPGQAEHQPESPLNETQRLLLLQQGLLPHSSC
Procedure: (§1) LanthaScreen® Eu Kinase Binding assays were conducted at Life Technologies using the manufacturer's specifications for each kinase indicated.
(§2) Briefly, the principle behind this assay is based upon the binding and displacement of an Alexa Fluor 647-labeled tracer to the kinase of interest. Binding of the tracer to the kinase is detected using an EU-labeled anti-tag antibody. Simultaneous binding of both the tracer and antibody to the kinase gives rise to a FRET-signal. Binding of an inhibitor to the kinase competes for binding with the tracer, resulting in a loss of FRET-signal.
(§3) Binding Assay Protocol for AXL, Mer, Tyro3 and Met
(§4) A given compound was diluted in DMSO to make a stock compound solution. The stock compound solution was serially diluted over eight steps in DMSO. Each diluted compound solution in DMSO was diluted in kinase buffer. Afterwards four kinds of working solution were prepared. First, Tracer-Working solution consists of Tracer 236 and Kinase Buffer. Second, Axl, Mer, Tyro3 or Met/anti-GST-AB-Working solution contained one of the kinases Axl, Mer, Tyro3, Met or anti-GST-AB (=anti glutathione-S-transferase antibody) in Kinase Buffer. Third, anti-GST-AB-Working solution was made with anti-GST-AB and Kinase Buffer. Last, in the DMSO-Working solution DMSO was added to Kinase Buffer to a final concentration to 3%. Each of the four kinds of working solutions were separately added to the assay plate and then incubated for 1 h at room temperature. After incubation, the assay plate was measured with respect to the FRET-Signal with the EnVision (Perkin Elmer) using the program LanthaHTRF-Assay. Data evaluation was done in the Quattro Workflow software.
(§5) Table 1 summarises the results obtained for AXL, Mer and Tyro3-kinases binding assays; table 2 summarises the results obtained for the Met kinase binding assay.

Met = target: T2, Met (Homo sapiens, UniProt P08581); test: LanthaScreen Eu kinase binding assay, Met; conditions: Tracer 236, read-out: cMet kinase binding activity (Kd)
T2 construct: purchased Life Technologies
T2 sequence (P08581 25-1390): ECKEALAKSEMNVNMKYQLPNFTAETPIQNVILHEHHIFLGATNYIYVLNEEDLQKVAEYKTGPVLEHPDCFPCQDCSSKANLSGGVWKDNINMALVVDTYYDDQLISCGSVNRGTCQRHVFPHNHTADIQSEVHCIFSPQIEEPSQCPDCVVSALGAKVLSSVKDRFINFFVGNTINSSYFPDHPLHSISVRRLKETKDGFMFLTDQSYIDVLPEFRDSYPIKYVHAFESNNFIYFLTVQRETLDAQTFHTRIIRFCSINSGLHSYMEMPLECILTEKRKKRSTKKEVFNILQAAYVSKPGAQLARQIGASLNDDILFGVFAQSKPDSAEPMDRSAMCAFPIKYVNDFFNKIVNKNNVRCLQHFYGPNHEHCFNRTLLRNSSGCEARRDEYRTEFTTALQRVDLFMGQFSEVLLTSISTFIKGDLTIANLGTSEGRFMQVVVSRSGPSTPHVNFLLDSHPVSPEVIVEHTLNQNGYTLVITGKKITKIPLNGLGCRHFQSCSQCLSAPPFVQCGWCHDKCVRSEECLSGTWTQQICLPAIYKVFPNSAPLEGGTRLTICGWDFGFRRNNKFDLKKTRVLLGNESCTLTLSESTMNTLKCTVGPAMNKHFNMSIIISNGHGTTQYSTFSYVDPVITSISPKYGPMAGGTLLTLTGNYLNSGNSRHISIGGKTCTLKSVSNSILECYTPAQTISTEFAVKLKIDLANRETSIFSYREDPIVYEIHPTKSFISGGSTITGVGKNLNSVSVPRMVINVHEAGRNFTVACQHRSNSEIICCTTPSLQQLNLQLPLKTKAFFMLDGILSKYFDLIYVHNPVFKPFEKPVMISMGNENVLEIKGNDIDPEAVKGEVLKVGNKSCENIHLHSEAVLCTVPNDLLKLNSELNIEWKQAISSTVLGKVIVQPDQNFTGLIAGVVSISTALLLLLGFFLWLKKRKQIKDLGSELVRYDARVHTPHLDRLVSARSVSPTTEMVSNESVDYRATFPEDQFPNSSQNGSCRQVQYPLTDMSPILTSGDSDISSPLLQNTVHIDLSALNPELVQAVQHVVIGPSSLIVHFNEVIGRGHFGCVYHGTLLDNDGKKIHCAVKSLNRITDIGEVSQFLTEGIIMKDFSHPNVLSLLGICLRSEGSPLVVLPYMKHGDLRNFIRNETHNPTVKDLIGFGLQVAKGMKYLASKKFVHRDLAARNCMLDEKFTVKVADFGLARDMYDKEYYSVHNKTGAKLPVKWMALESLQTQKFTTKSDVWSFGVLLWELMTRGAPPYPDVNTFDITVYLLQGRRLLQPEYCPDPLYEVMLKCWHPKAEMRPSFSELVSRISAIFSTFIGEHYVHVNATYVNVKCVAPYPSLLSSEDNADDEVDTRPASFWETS
Procedure: as §1, §2, §3, §4, §5

Mer = target: T3, Mer (Homo sapiens, UniProt Q12866); test: LanthaScreen Eu kinase binding assay, Mer; conditions: Tracer 236
T3 construct: purchased Life Technologies
T3 sequence (Q12866 21-999): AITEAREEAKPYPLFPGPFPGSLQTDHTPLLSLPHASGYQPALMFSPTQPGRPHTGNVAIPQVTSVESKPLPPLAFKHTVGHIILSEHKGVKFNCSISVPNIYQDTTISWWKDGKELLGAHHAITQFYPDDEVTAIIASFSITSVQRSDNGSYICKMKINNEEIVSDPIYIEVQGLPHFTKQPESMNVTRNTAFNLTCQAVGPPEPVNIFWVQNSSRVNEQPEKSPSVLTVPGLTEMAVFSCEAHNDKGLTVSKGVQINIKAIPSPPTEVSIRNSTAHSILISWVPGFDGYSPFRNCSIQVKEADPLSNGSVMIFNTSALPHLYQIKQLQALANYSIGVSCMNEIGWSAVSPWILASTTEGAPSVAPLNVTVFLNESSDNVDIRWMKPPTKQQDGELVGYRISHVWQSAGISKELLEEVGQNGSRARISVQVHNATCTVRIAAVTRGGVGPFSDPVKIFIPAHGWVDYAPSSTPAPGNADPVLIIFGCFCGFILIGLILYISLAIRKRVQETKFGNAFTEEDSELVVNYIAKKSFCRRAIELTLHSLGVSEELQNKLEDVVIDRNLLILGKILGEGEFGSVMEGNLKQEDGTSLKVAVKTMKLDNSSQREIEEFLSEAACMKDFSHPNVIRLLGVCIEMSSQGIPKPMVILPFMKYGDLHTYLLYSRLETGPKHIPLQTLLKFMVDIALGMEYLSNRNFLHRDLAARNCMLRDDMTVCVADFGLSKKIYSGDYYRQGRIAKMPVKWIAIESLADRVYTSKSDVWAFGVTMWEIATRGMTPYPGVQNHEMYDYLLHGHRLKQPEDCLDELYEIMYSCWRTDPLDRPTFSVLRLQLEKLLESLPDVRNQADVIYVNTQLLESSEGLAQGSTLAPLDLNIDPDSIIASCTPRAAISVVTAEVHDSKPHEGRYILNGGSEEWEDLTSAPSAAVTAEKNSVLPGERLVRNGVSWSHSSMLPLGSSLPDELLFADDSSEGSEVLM
Procedure: as §1, §2, §3, §4, §5

Axl = target: T4, Axl (Homo sapiens, UniProt P30530); test: LanthaScreen Eu kinase binding assay, Axl; conditions: Tracer 236
T4 construct: purchased Life Technologies
T4 sequence (P30530 26-894): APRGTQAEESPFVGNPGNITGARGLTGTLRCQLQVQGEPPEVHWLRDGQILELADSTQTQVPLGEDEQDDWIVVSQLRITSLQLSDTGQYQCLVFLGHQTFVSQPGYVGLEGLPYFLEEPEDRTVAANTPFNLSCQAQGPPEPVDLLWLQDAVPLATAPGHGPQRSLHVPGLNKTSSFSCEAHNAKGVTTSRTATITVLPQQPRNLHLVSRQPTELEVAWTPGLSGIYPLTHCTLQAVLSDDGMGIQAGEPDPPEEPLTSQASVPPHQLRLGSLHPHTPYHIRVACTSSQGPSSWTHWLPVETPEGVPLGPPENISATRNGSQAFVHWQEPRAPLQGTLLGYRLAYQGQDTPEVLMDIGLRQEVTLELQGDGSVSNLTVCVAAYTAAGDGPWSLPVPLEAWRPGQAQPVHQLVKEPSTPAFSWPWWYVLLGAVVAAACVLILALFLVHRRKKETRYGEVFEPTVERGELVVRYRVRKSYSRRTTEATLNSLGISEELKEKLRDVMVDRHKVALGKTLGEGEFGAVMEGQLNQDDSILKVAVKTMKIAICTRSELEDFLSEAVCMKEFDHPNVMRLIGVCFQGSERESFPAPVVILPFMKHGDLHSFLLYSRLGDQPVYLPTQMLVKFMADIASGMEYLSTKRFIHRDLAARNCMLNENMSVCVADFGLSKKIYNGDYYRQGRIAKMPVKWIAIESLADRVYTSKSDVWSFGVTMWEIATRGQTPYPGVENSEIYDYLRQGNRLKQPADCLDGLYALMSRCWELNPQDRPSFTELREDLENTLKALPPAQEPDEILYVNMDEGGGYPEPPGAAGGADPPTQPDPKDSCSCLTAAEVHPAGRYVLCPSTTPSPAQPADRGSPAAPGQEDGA
Procedure: as §1, §2, §3, §4, §5

| SMILES | Kd (TYRO3) [nM] | Kd (Met) [nM] | Kd (Mer) [nM] | Kd (Axl) [nM] |
| --- | --- | --- | --- | --- |
| CCOc1cn(-c2cnc(N)nc2)nc1C(=O)Nc1ccc(Oc2ccnc3cc(OC)c(OC)cc23)cc1F [Compound 153] | < 100 | < 100 | < 100 | < 100 |
| CCOc1cn(-c2cccnc2)nc1C(=O)Nc1ncc(Oc2ccnc3cc(OC)c(OC)cc23)cc1F [Compound 154] | ≥ 1000 | ≥ 1000 | < 100 | < 100 |
| CCOc1cn(-c2cncc(C)n2)nc1C(=O)Nc1ccc(Oc2ccnc3cc(OC)c(OC)cc23)cn1 [Compound 157] | ≥ 1000 | < 100 | < 100 | < 100 |
| CCOc1cn(-c2cnc(C(F)(F)F)cn2)nc1C(=O)Nc1ccc(Oc2ccnc3cc(OC)c(OC)cc23)cn1 [Compound 159] | ≥ 1000 | ≥ 1000 | ≥ 1000 | ≥ 1000 |
| CCOc1cn(-c2cnccn2)nc1C(=O)Nc1cc(C)c(Oc2ccnc3cc(OC)c(OC)cc23)cn1 [Compound 163] | ≥ 1000 | < 100 | < 100 | < 100 |
| CCOc1cn(-c2cncc(C(F)(F)F)n2)nc1C(=O)Nc1ccc(Oc2ccnc3cc(OC)c(OC)cc23)cn1 [Compound 164] | ≥ 1000 | 100 to 1000 | < 100 | 100 to 1000 |
| CCOc1cn(-c2cncnc2C(C)C)nc1C(=O)Nc1ccc(Oc2ccnc3cc(OC)c(OC)cc23)cn1 [Compound 166] | < 100 | < 100 | < 100 | < 100 |

The remaining lines, values ahead:

| Kd (TYRO3) [nM] | Kd (Met) [nM] | Kd (Mer) [nM] | Kd (Axl) [nM] | SMILES |
| --- | --- | --- | --- | --- |
| 100 to 1000 | < 100 | < 100 | < 100 | CCOc1cn(-c2ncc(F)cc2C#N)nc1C(=O)Nc1ccc(Oc2ccnc3cc(OC)c(OC)cc23)cn1 [Compound 155] |
| < 100 | < 100 | < 100 | < 100 | CCOc1c(C(=O)Nc2ccc(Oc3ccnc4cc(OC)c(OC)cc34)cn2)nn(-c2cccnc2)c1C [Compound 156] |
| ≥ 1000 | ≥ 1000 | ≥ 1000 | 100 to 1000 | CCOc1cn(-c2cncc(C#N)n2)nc1C(=O)Nc1ccc(Oc2ccnc3cc(OC)c(OC)cc23)cn1 [Compound 158] |
| 100 to 1000 | < 100 | < 100 | < 100 | CCOc1cn(-c2cnc(F)cn2)nc1C(=O)Nc1ccc(Oc2ccnc3cc(OC)c(OC)cc23)cn1 [Compound 171] |
